Assay: Degradation of THC during preparation of the chewing gum (extraction and HPLC)
Type: physicochemical
Conditions: gum base heated till 90° C.; main breakdown product dihydrocannabinol
Description: Samples were prepared by putting one gum in a 10.0 ml glass laboratory tube. 5.00 ml ethanol was added and the tube was shaken 3 times with a 5 minute interval. Then 5.00 ml mobile phase (acetonitrile: H2O+0.1% formic acid) was added. The tube was shaken and the gum was mashed with a Pasteur pipette. Then the solution was shaken again and the sample was filtered through a 0.2 micrometer filter. This is the impurity solution. An assay solution was prepared by diluting the impurity solution 100 times with mobile phase. The calculated amount of THC is based upon comparison with a reference solution with an exactly known amount of THC. Purities are calculated as peak area/sum of area's*100%. Impurities present in the placebo are not considered and known impurities are corrected with known response factors.

## CCCCCc1cc(O)c2c(c1)OC(C)(C)[C@@H]1CCC(C)=C[C@@H]21 [THC, (−)-(6aR,10aR)-6,6,9-trimethyl-3-pentyl-6a,7,8,10a-tetrahydro-6H-benzo[c]chromen-1-ol]
  degradation of THC during the preparation of the chewing gum: only a slight degradation
